Legend:
cantharidin mouse ear = test: Mouse cantharidin screen: topical anti-inflammatory activity, cantharidin mouse ear; assay type: in vivo; conditions: cantharidin 25 μg/ear, ears weighed after 24 hours
Protocol: Compounds were tested for topical anti-inflammatory activity in a cantharidin mouse ear screen, modified from Swingle, Reiter and Schwartzmiller [Arch. int. Pharmacodyn. 254, 168-176, 1976].
25 μg cantharidin (in 10 μl THF) was applied to both ears. Compound, in the same solvent, was applied at the same time, to the left ear only. Ears were weighed after 24 hours. Percentage inhibition of the acute inflammatory swelling refers to the increase in weight of left ears (cantharidin plus compound) compared to solvent-treated negative controls, as a proportion of the increase in weight of right ears (cantharidin alone) over similar controls.

[1] = tested on: mouse sensitized to oxazolone; test: Mouse oxazolone screen: topical anti-inflammatory activity in the mouse sensitized to oxazolone; assay type: in vivo; conditions: oxazolone challenge 100 μg/ear, ears weighed 24 hours later
Protocol: Compounds were tested for topical anti-inflammatory activity in a screen using the mouse sensitized to oxazolone, by a method modified from that of Dietrich and Hess [Int. Arch. Allergy, 38, 246 (1970)].
Mice were sensitized with oxazolone (2 mg in 20 μl EtOH) on a shaved area of the abdomen. 5 days later, the animals received 10 μl THF/MeOH (1:1 v/v) on the right ear and the test compound in the same solvent on the left ear. 1 hour later, the animals were challenged with 100 μg oxazolone in 10 μl acetone on each ear. Ear weights were measured 24 hours later. Percentage inhibition of the inflammatory swelling refers to the increase in weight of left ears (oxazolone plus compound in THF/MeOH) compared to untreated negative controls, as a proportion of the increase in weight of right ears (oxazolone plus THF/MeOH) only similar controls.

[2] = dose 200 μg/ear 1 hour before challenge

Compound | % Inhibition of the acute inflammatory swelling (cantharidin mouse ear; dose 500 μg/ear) | % Inhibition of the acute inflammatory swelling (cantharidin mouse ear; dose 200 μg/ear) | % Inhibition of the inflammatory swelling [1, 2] | further results
Cc1cc(NCC(C)C)c2[nH]nc(-c3ccccc3)c2n1 [Compound 7, 7-Isobutylamino-5-methyl-3-phenyl-1H-pyrazolo[4,3-b]pyridine] | 39% |  |  | 
Cc1cc(NCCO)c2nn(-c3ccccc3)c(C)c2n1 [Compound 13, 7-(2-Hydroxyethylamino)-3,5-dimethyl-2-phenylpyrazolo[4,3-b]pyridine] |  | 43% |  | 
C=CCNc1cc(C)nc2c(C)n[nH]c12 [Compound 4, 7-Allylamino-3,5-dimethyl-1H-pyrazolo[4,3-b]pyridine] |  | 83% |  | 
Cc1cc(NCCO)c2[nH]nc(-c3ccccc3)c2n1 [Compound 3, 7-(2-Hydroxyethylamino)-5-methyl-3-phenyl-1H-pyrazolo[4,3-b]pyridine] | 98% |  |  | % Inhibition of the inflammatory swelling ([1]; dose 500 μg/ear 1 hour before challenge): 52%
Cc1cc(NCCO)c2[nH]nc(Br)c2n1 [Compound 1, 3-Bromo-7-(2-hydroxyethylamino)-5-methyl-1H-pyrazolo-[4,3-b]pyridine] |  |  | 22% | 
Cc1cc(NCCO)c2[nH]nc(-c3ccc(Cl)cc3)c2n1 [Compound 6, 3-(4-Chlorophenyl)-7-(2-hydroxyethylamino)-5-methyl-1H-pyrazolo[4,3-b]pyridine] |  | 68% | 31% | 
C=CCNc1cc(C)nc2c(-c3ccccc3)n[nH]c12 [Compound 5, 7-Allylamino-5-methyl-3-phenyl-1H-pyrazolo[4,3-b]pyridine] | 90% |  |  | 
Cc1cc(NCCO)c2[nH]nc(C)c2n1 [Compound 2, 7-(2-Hydroxyethylamino)-3,5-dimethyl-1H-pyrazolo[4,3-b]pyridine] | 86% |  | 52% | 

Source: patent US4833136A, “Pharmaceutically useful pyrazolo[4,3-b]pyridines” (Beecham Group p.l.c., priority 1986, dated 1989)
